Test results: US20120128706A1, “IMMUNE ADJUVANT COMPRISING ATP” (priority 2007, published 2012)

How the values were obtained:
[1] = test system: Balb/c mice; experiment: Production amount of antibody by ELISA after dermal administration of antigenic substance with immunoadjuvant (Test Example 1); format: in vivo
[2] = test system: Balb/c mice; experiment: Measurement of IgG1/IgG2 ratio in blood samples as an index of Th2/Th1 balance (Test Example 2); format: in vivo; conditions: for IgG1/IgG2 ratio (given as average of the absorbance): mouse, in vivo
Experimental: The blood sample collected on the 25th day from the start of the test was provided, and the IgG1/IgG2 ratio was measured as an index of Th2/Th1 balance.
Further, a blood sample obtained by inoculating only the antigenic substance by intraperitoneal administration instead of the dermal administration at the same time as in the administration schedule in Test Example 1 was used as a control blood sample for comparison.
The IgG1/IgG2 ratio was measured with a Mouse Monoclonal Antibody Isotyping Reagents kit (SIGMA).
Specifically, a mouse serum was diluted with PBS by a factor of 1000 to give a solution. The solution (100 μL) was added to wells in a plate and was incubated at 37° C. for one hr. Next, each well was washed three times with PBS, and 100 μL of isotyping specific reagents (reagents containing IgA, IgG1, IgG2a, and IgG2b), which had been diluted by a factor of 1000, were added to the wells followed by incubation at room temperature for 30 min. Each well was washed three times with PBST. A peroxidase labelled mouse IgG (manufactured by SIGMA) (100 μL), which had been diluted with PBST by a factor of 5000, was added to the wells, and the wells were allowed to stand at room temperature for one hr. The wells were then washed three times with PBST. Thereafter, ABTS was added as a chromophoric substrate, and incubation was carried out for 5 to 10 min. For each well, the absorbance was measured with Multiscan Ascent (manufactured by Thermo Labsystems, wave length 405 nm).

Compound	average±standard error of the absorbance (amount of antibody in mouse serum by ELISA) ([1]; serum sample on the 25th day from start of test, dermal administration by tape preparation, serum diluted 1000-fold, wavelength 405 nm, n=4)	Th2/Th1 balance (type of immunity induced) ([2]; from IgG1/IgG2 ratio, compared with antigenic substance only intraperitoneally or with cholera toxin)	IgG1/IgG2 ratio (given as average of the absorbance) [2]	average±standard error of the absorbance (amount of antibody in mouse serum by ELISA) ([1]; mouse, in vivo)
Nc1ncnc2c1ncn2[C@@H]1O[C@H](COP(=O)(O)OP(=O)(O)OP(=O)(O)O)[C@@H](O)[C@H]1O [ATP, adenosine triphosphate]	0.670±0.033	Th2 cells are predominant	2.28	
cholera toxin [reference compound]			1.46	0.551±0.202
